Reference: the NIST ThermoML archive (doi:10.1021/acs.jced.6b00786)

Assay: xn = mol fraction of the nth substance listed
Conditions: 101 kPa, Liquid, Vibrating tube method

NC=O [formamide] + O
mass density [kg/m3]
Conditions	288.15 K	298.15 K	308.15 K	323.15 K	333.15 K
x1 = 0.00244	–	997.942	994.873	988.848	983.879
x1 = 0.00515	–	998.905	995.763	989.627	984.704
x1 = 0.0086	–	1000.14	996.897	990.671	985.696
x1 = 0.02032	–	1004.2	1000.68	994.128	988.955
x1 = 0.03478	–	1009	1005.15	998.15	992.755
x1 = 0.04976	–	1013.73	1009.5	1002.11	996.5
x1 = 0.06674	–	1018.77	1014.31	1006.45	1000.6
x1 = 0.08229	–	1023.18	1018.42	1010.31	1004.2
x1 = 0.1171	–	1032.35	1027.15	1018.36	1011.84
x1 = 0.1745	–	1045.52	1039.6	1030.08	1023.19
x1 = 0.2169	–	1053.94	1047.65	1037.62	1030.56
x1 = 0.2557	–	1060.92	1054.32	1043.94	1036.75
x1 = 0.3026	–	1068.56	1061.67	1050.89	1043.42
x1 = 0.351	–	1075.56	1068.41	1057.31	1049.67
x1 = 0.4027	–	1082.34	1074.96	1063.57	1055.76
x1 = 0.4487	–	1087.78	1080.22	1068.62	1060.68
x1 = 0.4886	–	1092.05	1084.37	1072.62	1064.58
x1 = 0.5601	–	1099.14	1091.28	1079.26	1071.15
x1 = 0.5916	–	1102.04	1094.1	1081.99	1073.78
x1 = 0.6674	–	1108.34	1100.24	1087.95	1079.63
x1 = 0.7066	–	1111.34	1103.2	1090.81	1082.46
x1 = 0.7495	1122.53	1114.37	1106.15	1093.69	1085.28
x1 = 0.7931	1125.6	1117.37	1109.09	1096.56	1088.11
x1 = 0.8601	1129.96	1121.65	1113.29	1100.66	1092.16
x1 = 0.8996	1132.4	1124.05	1115.65	1102.97	1094.46
x1 = 0.948	1135.23	1126.82	1118.38	1105.65	1097.1
x1 = 0.9753	1136.78	1128.35	1119.88	1107.13	1098.56
x1 = 0.9847	1137.31	1128.87	1120.39	1107.62	1099.05
x1 = 0.9897	1137.59	1129.15	1120.66	1107.9	1099.33
x1 = 0.9959	1137.94	1129.5	1121.01	1108.24	1099.68
x1 = 1	1138.17	1129.73	1121.22	1108.46	1099.88
